Experimental data published in ChEMBL document CHEMBL1143868, “Synthesis, SAR, and Evaluation of 4-[2,4-Difluoro-5-(cyclopropylcarbamoyl)phenylamino]pyrrolo[2,1-f][1,2,4]triazine-based VEGFR-2 kinase inhibitors” (Bioorg Med Chem Lett, 2008).

Key:
[1] = Cmax in mouse at 50 mg/kg, po; type: ADME, organism-based; design: dose 50 mg/kg, route oral; details: in vivo
[2] = system: Liver; experiment: Metabolic stability in mouse liver microsomes per mg of protein at 3 uM after 10 mins; type: ADME, Microsome
[3] = AUC (0 to 4 hrs) in mouse at 50 mg/kg, po; type: ADME, organism-based; design: time < 4 hr, dose 50 mg/kg, route oral; details: plasma
[4] = Tmax in mouse at 50 mg/kg, po; type: ADME, organism-based; design: dose 50 mg/kg, route oral; details: in vivo
[5] = system: Liver microsomes; experiment: Metabolic stability in human liver microsomes per mg of protein at 3 uM after 10 mins; type: ADME, Microsome

| SMILES | Cmax [1] | Stability [2] | AUC(0-t) at 4 h [3] | Tmax [4] | Stability [5] |
| --- | --- | --- | --- | --- | --- |
| CC(C)c1c(-c2nnc(OC3CCNCC3)o2)cn2ncnc(Nc3cc(C(=O)NC4CC4)c(F)cc3F)c12 | 15 µM | 0.007 nmol/min/mg | 53.2 µM·h | 4 h | 0.023 nmol/min/mg |
| CC(C)c1c(-c2nnc(NCCCCN)o2)cn2ncnc(Nc3cc(C(=O)NC4CC4)c(F)cc3F)c12 | 0.1 µM | 0 nmol/min/mg | 0.2 µM·h | 0.5 h | 0.012 nmol/min/mg |
| CC(C)c1c(-c2nnc(NCCCN(C)C)o2)cn2ncnc(Nc3cc(C(=O)NC4CC4)c(F)cc3F)c12 | 8 µM | 0.02 nmol/min/mg | 21.7 µM·h | 1 h | 0.098 nmol/min/mg |
